Structures are written as SMILES. Converted amounts (≈) assume the structure as drawn.

Data on 53 molecules can be found in PubChem BioAssay AID1996.

The conditions of the data set: buffer; pH 7.4; 200.0 µM.
For `O=C1NC(c2ccc(Cl)cc2)=COc2ccccc21`, the solubility (kinetic) (in general, solubility judged after dilution from a stock solution rather than from solid) is 1.1 µg/mL (≈ 4.05 µM).
The molecule `NS(=O)(=O)c1ccc(NC(=O)c2cc(=O)c3ccccc3o2)cc1` returned a kinetic solubility of 18.7 µg/mL (≈ 54.3 µM).
`COc1ccc(CNC(=O)c2cc3ccccc3oc2=O)cc1`: the kinetic solubility is < 0.7 µg/mL.
For `CCOc1ccc(Cn2cc(F)c(=O)[nH]c2=O)cc1`, the kinetic solubility is > 39.6 µg/mL.
The value for `Cc1ccc(O)c(NC(=S)NC(=O)C(C)C)c1` was > 37.8 µg/mL; that for `COc1ccc2[nH]cc(CCNC(=O)c3ccc([N+](=O)[O-])cc3)c2c1` was 26.3 µg/mL (≈ 77.5 µM); that for `CCSc1nsc(NC(=O)Nc2ccc(F)cc2F)n1` was 1.7 µg/mL (≈ 5.37 µM).
The value for `O=C(O)c1c(NC(=O)N2CCCC2)sc2c1CCCC2` was > 44.2 µg/mL.
Take `O=C1CCCCC1Sc1ccc(Cl)cc1[N+](=O)[O-]` (stereo not drawn): the kinetic solubility amounted to 40.6 µg/mL (≈ 142 µM).
The value for `Cl.O=C(CN1CCOCC1)c1ccc(Br)cc1` was > 48.1 µg/mL; that for `O=C(Nc1cccc(S(=O)(=O)N2CCCCCC2)c1)c1cncc(Br)c1` was 13.1 µg/mL (≈ 29.9 µM); that for `COc1ccc(NC(=S)NC2CCCC2)c(OC)c1` was > 42.1 µg/mL.
The value for `O=C(Nc1nccs1)c1ncc(Cl)c(Cl)c1Cl` was 12.5 µg/mL (≈ 40.5 µM); that for `OC1(C(F)(F)F)CC(c2ccc3ccccc3c2)=NO1` (stereo not drawn) was > 42.2 µg/mL.
In the case of `CC1C(=O)N2CCCc3cc(NC(=O)c4ccccc4F)cc1c32` (stereo not drawn), the solubility (kinetic) is > 48.7 µg/mL.
Take `CCC1CCCCN1CC(=O)Nc1ccc2c(c1)OCCO2` (stereo not drawn): the kinetic solubility was > 45.7 µg/mL.
Molecule `Fc1cccc(NCCc2c[nH]c3ccccc23)n1` had a kinetic solubility of 35.6 µg/mL (≈ 139 µM).
The result for `CC(C)(O)C#Cc1ccc(C(=O)NC2CCCCC2)s1` reads > 43.7 µg/mL; that for `Cc1cccc(C(=O)Nc2ccnc(-c3cccnc3)n2)c1`, 5.4 µg/mL (≈ 18.6 µM); that for `O=C(Nc1cccc2ncccc12)c1cc(Br)ccc1Cl`, 5 µg/mL (≈ 13.8 µM).
Molecule `NC1=Nc2cccc3cccc1c23` showed a solubility (kinetic) of 23.2 µg/mL (≈ 138 µM).
`COc1ccc(C(=O)NC2CCCc3ccccc32)cc1[N+](=O)[O-]` (stereo not drawn) showed a kinetic solubility of 2.4 µg/mL (≈ 7.35 µM).
As to `CC(NC(=O)c1ccco1)c1nc(-c2ccccc2Cl)no1` (stereo not drawn), the kinetic solubility was > 47.7 µg/mL.
Consider `Cc1csc(NC(=O)CCCC(=O)c2ccccc2)n1`, for which the solubility (kinetic) was > 43.3 µg/mL.
The result for `Cc1cc(C(=O)Nc2cc(C(C)(C)C)on2)c(C)o1` reads 3.8 µg/mL (≈ 14.5 µM); that for `COc1ccc(NC(=O)NCc2ccccn2)c(OC)c1`, 42.1 µg/mL (≈ 147 µM); that for `COc1ccc2c(=O)c(C(=O)NCCc3ccccc3)c[nH]c2c1`, 5.2 µg/mL (≈ 16.1 µM).
Consider `Cc1ccc(NC(=O)C(C)Sc2nnc3ccccn23)cc1` (stereo not drawn), for which the kinetic solubility is > 46.9 µg/mL.
Turning to `CC1(C)CC(=O)C2=C(C1)OC(N)=C([N+](=O)[O-])C2c1ccc(F)cc1` (stereo not drawn), the solubility (kinetic) was > 49.8 µg/mL.
In the case of `COc1cccc(COC(=O)Nc2ccccc2F)c1`, the solubility (kinetic) is 18.9 µg/mL (≈ 68.7 µM).
`O=[N+]([O-])c1ccc(N2CCc3ccccc3C2)nc1` yielded a kinetic solubility of 7.6 µg/mL (≈ 29.8 µM).
Turning to `COc1cc(/C=C/C(=O)OCC(=O)NC2CCCCCCC2)ccc1O`, the solubility (kinetic) came out at 36.2 µg/mL (≈ 100 µM).
Turning to `COc1ccc(NC(=O)COC(=O)Cc2c[nH]c3ccccc23)cc1Cl`, the kinetic solubility is 4.1 µg/mL (≈ 11 µM).
Turning to `Cn1cnc2c1c(=O)n(Cc1ccc(Cl)cc1Cl)c(=O)n2C`, the solubility (kinetic) was > 50.9 µg/mL.
Take `CC1(C2CC2)NC(=O)N(CC(=O)NCC(=O)Nc2ccc(F)c(F)c2F)C1=O` (stereo not drawn): the solubility (kinetic) was > 59.8 µg/mL.
The result for `COc1cccc(NC(=O)c2cc(=O)c3ccccc3o2)c1` reads 1.9 µg/mL (≈ 6.43 µM).
Regarding `CCC(C)NC(=O)C1c2ccccc2C(=O)N1Cc1ccc(F)cc1` (stereo not drawn), the solubility (kinetic) is > 51.1 µg/mL.
The result for `CN(C)c1cc(-c2ccc(Cl)cc2)oc(=O)c1Cl` reads 1.7 µg/mL (≈ 5.98 µM).
`Cc1ccc(S(=O)(=O)N2CCN(C(=O)COC(=O)CNC(=O)c3ccc(C(C)(C)C)cc3)CC2)c(C)c1` showed a kinetic solubility of 16.5 µg/mL (≈ 31.2 µM).
As for `COc1ccc(C2C(C(C)=O)=C(O)C(=O)N2c2ccc(O)cc2)cc1` (stereo not drawn), the solubility (kinetic) is > 50.9 µg/mL.
`Cc1ccc(C(=O)OCC(=O)N2CCCC2)cc1`: the kinetic solubility is 32.7 µg/mL (≈ 132 µM).
As for `COC(=O)CSc1[nH]c2cc(C)ccc2c1[N+](=O)[O-]`, the solubility (kinetic) is > 42 µg/mL.
Regarding `COc1ccc(CCC(C)N(C)Cc2ccccc2)cc1` (stereo not drawn), the kinetic solubility was 34.9 µg/mL (≈ 123 µM).
As for `O=C(Nc1cc(Cl)ccc1N1CCOCC1)c1cccnc1`, the solubility (kinetic) was > 47.7 µg/mL.
Molecule `O=C(O)c1cccc(OCCN2CCCC2=O)c1` showed a kinetic solubility of 34.6 µg/mL (≈ 139 µM).
`CN(C)C(=S)Nc1cccc(F)c1` showed a kinetic solubility of 28.5 µg/mL (≈ 144 µM).
On to `O=C(c1cc(-c2ccc(Cl)cc2Cl)on1)N1CCCC1`, for which the kinetic solubility was 1.8 µg/mL (≈ 5.78 µM).
`CCOc1ccc(NC(=O)COc2ccc(S(=O)(=O)N3CCOCC3)cc2)cc1` returned a solubility (kinetic) of 2.9 µg/mL (≈ 6.9 µM).
The value for `O=C(Nc1ccc(Br)cc1)c1cccnc1N1CCOCC1` was > 54.3 µg/mL.
The result for `Cc1cc(C)cc(NC(=O)CCc2ccc(C)o2)c1` reads 34.6 µg/mL (≈ 134 µM); that for `Cc1snc(SCc2cccc(Cl)c2)c1C#N`, < 0.3 µg/mL; that for `COc1ccc(CSc2ncnc3sccc23)cc1F`, < 0.3 µg/mL.
Take `CCc1nnc(NC(=O)CCNC(=O)c2ccccc2Cl)s1`: the kinetic solubility is > 50.8 µg/mL.
